Assays:
[1] = test system: SREBP1c; assay: Semiquantitative RT-PCR, liver tissue: SREBP1c mRNA; format: in vivo, C57BL/6J mice; settings: STZ-induced diabetic mice, 28 days, relative to CON group (so in the source)
Procedure: (§1) Total RNA from liver tissue was isolated with a Trizol Reagent (Molecular Research Center, Inc., Cincinnati, Ohio) according to the manufacturer's directions. The integrity of the extracted total RNA was examined by 2% agarose gel electrophoresis, and the RNA concentration was determined by the ultraviolet (UV) light absorbency at 260 nm and 280 nm (Spectrophotometer U-2800A, Hitachi). Total RNA (1 μg) was reverse transcribed to cDNA in a reaction mixture containing buffer, and 5 μL Moloney murine leukemia virus reverse transcriptase (Epicentre, Madison, Wis., USA). The polymerase chain reaction (PCR) was performed in a final 25 μL containing 1 U Blend Taq-Plus (TOYOBO, Japan), 1 μL of the RT first-strand cDNA product, 10 μM of each forward (F) and reverse (R) primer, 75 mM Tris-HCl (pH 8.3) containing 1 mg/L Tween 20, 2.5 mM dNTP, and 2 mM MgCl2. The products were run on 2% agarose gels and stained with ethidium bromide.

[2] = test system: CPT1a; assay: Semiquantitative RT-PCR, liver tissue: CPT1a mRNA; format: in vivo, C57BL/6J mice; settings: STZ-induced diabetic mice; TT oral (10, 20, 40 mg/kg/day groups, dose not given)
Procedure: as §1

[3] = test system: G6 Pase; assay: Semiquantitative RT-PCR, liver tissue: G6 Pase mRNA; format: in vivo, C57BL/6J mice; settings: STZ-induced diabetic mice, 28 days, relative to CON group (so in the source)
Procedure: as §1

[4] = test system: PEPCK; assay: Semiquantitative RT-PCR, liver tissue: PEPCK mRNA; format: in vivo, C57BL/6J mice; settings: STZ-induced diabetic mice, 28 days, relative to CON group (so in the source)
Procedure: as §1

[5] = test system: SREBP2; assay: Semiquantitative RT-PCR, liver tissue: SREBP2 mRNA; format: in vivo, C57BL/6J mice; settings: STZ-induced diabetic mice; TT oral (10, 20, 40 mg/kg/day groups, dose not given)
Procedure: as §1

[6] = test system: STZ-induced diabetic mice; assay: Tissue weight, body weight and food intake in STZ-induced diabetic mice; format: in vivo, C57BL/6J mice; settings: 28 days
[7] = test system: GLUT4; assay: Western blotting: membrane GLUT4 in skeletal muscle of mice; settings: STZ-induced diabetic mice, 28 days
Procedure: (§7) The study protocol was performed as previously described.^28 Diabetes was induced by intraperitoneal injection of streptozotocin (Sigma Chemical, St. Louis, Mo., USA) for 5 consecutive days. The dosage of STZ was 55 mg/kg (dissolved in 0.05 M cold sodium citrate buffer, pH 4.5). The normal control mice received only citrate buffer of the same volume.
(§8) During the experiment, all mice were fasted overnight, and blood was collected from the retro-orbital sinus. After dosing for 4 weeks, food was removed from the mice at night, and on the next day, the mice after 12 h of fasting were sacrificed. All of the individual tissues were collected and weighed, and parts of tissues were instantly frozen at −80° C. for later target gene analysis.
(§9) PPARα, PPARγ, and FAS proteins were performed by the liver and white adipose tissue of mice. Skeletal muscle from mice was subjected to GLUT4 expression level analysis, and the total membrane fractions were collected with buffer and determined using a described procedure. The protein contents of GLUT4, phospho-AMPK, and total AMPK were detected by Western blotting and determined as described.

[8] = test system: PPARα; assay: Western blotting: PPARα in liver of mice; settings: STZ-induced diabetic mice, 28 days
Procedure: as §7, §8, §9

[9] = test system: GLUT4; assay: GLUT4 protein expression in C2C12 myotube cells (Western blot); format: cell-based
Procedure: (§2) C2C12 skeletal myoblasts (ATCC, CRL-1772) were maintained in growth media consisting of Dulbecco's modified Eagle's medium (DMEM) (Gibco BRL) supplemented with 10% fetal bovine serum (FBS) (Hyclone) and 100 U/mL penicillin/100 μg/mL streptomycin (Gibco BRL) and split 1:4 using 0.05% trypsin when 80% confluent. Myoblasts were diluted and placed in a 9 cm dish. Cells were cultured to achieve 80-90% confluency, and growth medium was changed as 2% FBS/DMEM every 24 h for 5-7 days.
(§3) Determination of GLUT4 and phospho-Akt (Ser^473)/Total Akt Proteins in Vitro: Differentiated C2C12 cells were serum starved in DMEM/BSA (2 h at 37° C.) prior to incubation either with test compounds (TT at 1, 5, 10, and 25 μg/mL) or with vehicle (DMSO containing saline, final concentration of DMSO=0.2%) for 30 min or with 100 nM insulin for 25 min.
(§4) Following treatment, cells were washed three times with ice-cold PBS and separated into two portions. A portion of the cells was subsequently lysed in RIPA buffer (50 mM Tris-HCl, pH 8, 150 mM NaCl, 1% NP-40, 0.5% sodium deoxycholate, 0.1% SDS) supplemented with complete protease inhibitor cocktail (Roche) and phosphatase inhibitors and then centrifuged at 20000 g for […].
(§5) Supernatant protein was collected and stored at −20° C. Another portion of cells was homogenized with buffer (250 mmol/L sucrose, 50 mmol/L Tris, and 0.2 mmol/L edetic acid, pH 7.4) at 4° C., as previously described. The homogenates were centrifuged at 9000 g for 10 min (4° C.). The pellet was suspended with 0.5 mL of homogenization buffer and then centrifuged, repeated three times. The three supernatants were collected, mixed, and centrifuged at 190000 g for 60 min (4° C.). The pellet was resuspended with 0.2 mL of homogenization buffer, stored at −20° C., and performed within membrane.
(§6) Protein concentration was determined via BCA assay (Pierce). Equal amounts of protein were then diluted four times in SDS sample buffer and subjected to SDS-PAGE and were detected by Western blotting with antibodies specific for Akt, phosph-Akt Ser^473, and GLUT4. The density blotting was analyzed using Alpha Easy FCsoftware (Alpha Innotech Corp., Randburg, South Africa).

[10] = test system: AMPK; assay: Western blotting: phospho-AMPK (Thr172)/total AMPK in skeletal muscle and liver of mice; settings: STZ-induced diabetic mice, 28 days
Procedure: as §7, §8, §9

[11] = test system: PPARγ; assay: Western blotting: PPARγ in liver and adipose tissue of mice; settings: STZ-induced diabetic mice, 28 days
Procedure: as §7, §8, §9

[12] = test system: Akt; assay: phospho-Akt (Ser473)/total Akt in C2C12 myotube cells (Western blot); format: cell-based
Procedure: as §2, §3, §4
as §5, with “The pellet was resuspended with 0.2 mL of homogenization buffer, stored at −20° C., and performed within membrane.” left out
as §6

[13] = test system: DGAT2; assay: Semiquantitative RT-PCR, liver tissue: DGAT2 mRNA; format: in vivo, C57BL/6J mice; settings: STZ-induced diabetic mice, 28 days, relative to CON group (so in the source)
Procedure: as §1

[14] = test system: FAS; assay: Western blotting: FAS in liver and adipose tissue of mice; settings: STZ-induced diabetic mice, 28 days
Procedure: as §7, §8, §9

[15] = test system: PPARα; assay: Semiquantitative RT-PCR, liver tissue: PPARα mRNA; format: in vivo, C57BL/6J mice; settings: STZ-induced diabetic mice, 28 days
Procedure: as §1

[16] = test system: STZ-induced diabetic mice; assay: Histology of epididymal WAT and liver tissue in STZ-induced diabetic mice; format: in vivo, C57BL/6J mice; settings: 28 days
Source text: Parts of EWAT and liver tissue specimens were investigated as previously described.^31,32 Microscopic images were taken using a microscope (Olympus BX51, BX51, Olympus, Tokyo, Japan).

`C=C(CC[C@@H](C(=O)O)[C@H]1CC[C@@]2(C)C3=CC[C@H]4C(C)(C)[C@@H](O)CC[C@]4(C)C3=CC[C@]12C)C(C)C` [TT, dehydroeburicoic acid] was tested, and the “mRNA levels of SREBP1c in liver” value ([1]; TT 10 mg/kg/day oral) was “decreased”, the “mRNA levels of SREBP1c in liver” value ([1]; TT 20 mg/kg/day oral) was “decreased” and the “mRNA levels of SREBP1c in liver” value ([1]; TT 40 mg/kg/day oral) was “decreased”. The “CPT1a mRNA levels in liver” value [2] was “enhanced”, the “mRNA levels of G6 Pase in liver” value ([3]; TT 10 mg/kg/day oral) was “decreased” and the “mRNA levels of G6 Pase in liver” value ([3]; TT 20 mg/kg/day oral) was “decreased”. For the same compound, the “mRNA levels of G6 Pase in liver” value ([3]; TT 40 mg/kg/day oral) was “decreased”, the “mRNA levels of PEPCK in liver” value ([4]; TT 10 mg/kg/day oral) was “decreased” and the “mRNA levels of PEPCK in liver” value ([4]; TT 20 mg/kg/day oral) was “decreased”. For the same compound, the “mRNA levels of PEPCK in liver” value ([4]; TT 40 mg/kg/day oral) was “decreased”, the “SREBP2 mRNA levels in liver” value [5] was “decreased” and the “Tissue weight: BAT” value ([6]; TT 10 mg/kg/day oral) was 0.296 ± 0.012 wt %. The “Tissue weight: EWAT” value ([6]; TT 10 mg/kg/day oral) was 0.778 ± 0.063 wt %, the “Tissue weight: MWAT” value ([6]; TT 10 mg/kg/day oral) was 0.562 ± 0.114 wt % and the “Tissue weight: RWAT” value ([6]; TT 10 mg/kg/day oral) was 0.122 ± 0.029 wt %. The “Tissue weight: Visceral fat” value ([6]; TT 10 mg/kg/day oral) was 0.900 ± 0.082 wt %, the “Tissue weight: BAT” value ([6]; TT 20 mg/kg/day oral) was 0.323 ± 0.026 wt % and the “Tissue weight: EWAT” value ([6]; TT 20 mg/kg/day oral) was 0.783 ± 0.087 wt %. The “Tissue weight: MWAT” value ([6]; TT 20 mg/kg/day oral) was 0.709 ± 0.111 wt %, the “Tissue weight: RWAT” value ([6]; TT 20 mg/kg/day oral) was 0.161 ± 0.031 wt % and the “Tissue weight: Visceral fat” value ([6]; TT 20 mg/kg/day oral) was 0.944 ± 0.115 wt %. The “Tissue weight: EWAT” value ([6]; TT 40 mg/kg/day oral) was 0.715 ± 0.068 wt %, the “Tissue weight: MWAT” value ([6]; TT 40 mg/kg/day oral) was 0.720 ± 0.114 wt % and the “Tissue weight: RWAT” value ([6]; TT 40 mg/kg/day oral) was 0.119 ± 0.014 wt %. For the same compound, the “Tissue weight: Visceral fat” value ([6]; TT 40 mg/kg/day oral) was 0.834 ± 0.082 wt %, the “membrane expression levels of GLUT4 in skeletal muscle vs STZ group” value (“membrane expression levels … vs STZ group” below) ([7]; TT 10 mg/kg/day oral) was “greater” and the “membrane expression levels … vs STZ group” value ([7]; TT 20 mg/kg/day oral) was “greater”. For the same compound, the “membrane expression levels … vs STZ group” value ([7]; TT 40 mg/kg/day oral) was “greater”, the “expression levels of PPARα in the liver” value ([8]; TT 10 mg/kg/day oral) was “increased” and the “expression levels of PPARα in the liver” value ([8]; TT 20 mg/kg/day oral) was “increased”. For the same compound, the “expression levels of PPARα in the liver” value ([8]; TT 40 mg/kg/day oral) was “increased”, the “protein expressions of GLUT4 vs CON group” value ([9]; TT 1 μg/mL, 30 min) was “higher” and the “protein expressions of GLUT4 vs CON group” value ([9]; TT 5 μg/mL, 30 min) was “higher”. For the same compound, the “protein expressions of GLUT4 vs CON group” value ([9]; TT 10 μg/mL, 30 min) was “higher”, the “protein expressions of GLUT4 vs CON group” value ([9]; TT 25 μg/mL, 30 min) was “higher” and the “expression levels of phospho-AMPK/total AMPK in skeletal muscle” value ([10]; TT 10 mg/kg/day oral) was “increased”. For the same compound, the “muscular expression levels of phospho-AMPK/total AMPK compared with the STZ group (second sentence)” value ([10]; TT 10 mg/kg/day oral) was “increased”, the “expression levels of phospho-AMPK/total AMPK in skeletal muscle” value ([10]; TT 20 mg/kg/day oral) was “increased” and the “muscular expression levels of phospho-AMPK/total AMPK compared with the STZ group (second sentence)” value ([10]; TT 20 mg/kg/day oral) was “increased”. For the same compound, the “expression levels of phospho-AMPK/total AMPK in skeletal muscle” value ([10]; TT 40 mg/kg/day oral) was “increased”, the “muscular expression levels of phospho-AMPK/total AMPK compared with the STZ group (second sentence)” value ([10]; TT 40 mg/kg/day oral) was “increased” and the “expression levels of PPARγ in adipose tissue” value ([11]; TT 10 mg/kg/day oral) was “decreased”. For the same compound, the “expression levels of PPARγ in the liver” value ([11]; TT 10 mg/kg/day oral) was “decreased”, the “expression levels of PPARγ in adipose tissue” value ([11]; TT 20 mg/kg/day oral) was “decreased” and the “expression levels of PPARγ in the liver” value ([11]; TT 20 mg/kg/day oral) was “decreased”. The “expression levels of PPARγ in adipose tissue” value ([11]; TT 40 mg/kg/day oral) was “decreased”, the “expression levels of PPARγ in the liver” value ([11]; TT 40 mg/kg/day oral) was “decreased” and the “levels of phospho-Akt (Ser473)/total Akt proteins vs CON group” value (“levels of phospho-Akt … vs CON group” for short) ([12]; TT 10 μg/mL, 30 min) was “higher”. For the same compound, the “levels of phospho-Akt … vs CON group” value ([12]; TT 25 μg/mL, 30 min) was “higher”, the “mRNA levels of DGAT2 in liver” value ([13]; TT 10 mg/kg/day oral) was “decreased” and the “mRNA levels of DGAT2 in liver” value ([13]; TT 20 mg/kg/day oral) was “decreased”. The “mRNA levels of DGAT2 in liver” value ([13]; TT 40 mg/kg/day oral) was “decreased”, the “expression levels of FAS in adipose tissue” value ([14]; TT 10 mg/kg/day oral) was “decreased” and the “expression levels of FAS in the liver” value ([14]; TT 10 mg/kg/day oral) was “decreased”. For the same compound, the “expression levels of FAS in adipose tissue” value ([14]; TT 20 mg/kg/day oral) was “decreased”, the “expression levels of FAS in the liver” value ([14]; TT 20 mg/kg/day oral) was “decreased” and the “expression levels of FAS in adipose tissue” value ([14]; TT 40 mg/kg/day oral) was “decreased”. For the same compound, the “expression levels of FAS in the liver” value ([14]; TT 40 mg/kg/day oral) was “decreased”, the “mRNA level of PPARα in liver” value ([15]; TT 10 mg/kg/day oral) was “increased” and the “mRNA level of PPARα in liver” value ([15]; TT 20 mg/kg/day oral) was “increased”. The “mRNA level of PPARα in liver” value ([15]; TT 40 mg/kg/day oral) was “increased”, the “ballooning of hepatocyte (liver histology)” value ([16]; TT 10 mg/kg/day oral) was “no ballooning phenomenon” and the “average area of adipocytes in epididymal WAT” value ([16]; TT 20 mg/kg/day oral) was 5379.9±187.2 μm^2. For the same compound, the “ballooning of hepatocyte (liver histology)” value ([16]; TT 20 mg/kg/day oral) was “no ballooning phenomenon”, the “average area of adipocytes in epididymal WAT” value ([16]; TT 40 mg/kg/day oral) was 4910.5±104.9 μm^2 and the “ballooning of hepatocyte (liver histology)” value ([16]; TT 40 mg/kg/day oral) was “no ballooning phenomenon”.

With insulin [reference compound] the “protein expressions of GLUT4 vs CON group” value ([9]; 100 nM insulin, 25 min) was “higher” and the “levels of phospho-Akt … vs CON group” value ([12]; 100 nM insulin, 25 min) was “higher”.
